Measurements from the NIST ThermoML archive (doi:10.1021/je300557g).

Test: xn = mol fraction of the nth substance listed
Settings: 101 kPa, Liquid; for mass density: Vibrating tube method

CCCC[n+]1ccc(C)cc1.F[B-](F)(F)F [1-butyl-4-methylpyridinium tetrafluoroborate] + CO
Settings | kinematic viscosity, 293.15 K [m2/s] | kinematic viscosity, 303.15 K [m2/s] | kinematic viscosity, 313.15 K [m2/s] | kinematic viscosity, 323.15 K [m2/s] | mass density, 293.15 K [kg/m3] | mass density, 303.15 K [kg/m3] | mass density, 313.15 K [kg/m3] | mass density, 323.15 K [kg/m3]
x1 = 0.0477 | 1.02e-06 | 8.83e-07 | 7.78e-07 | 6.88e-07 | 876.71 | 867.94 | 858.74 | 849.6
x1 = 0.0958 | 1.42e-06 | 1.2e-06 | 1.02e-06 | 8.92e-07 | 936.07 | 927.56 | 918.89 | 910.02
x1 = 0.2055 | 2.83e-06 | 2.29e-06 | 1.91e-06 | 1.62e-06 | 1021.53 | 1013.48 | 1005.4 | 997.15
x1 = 0.2889 | 4.57e-06 | 3.6e-06 | 2.92e-06 | 2.44e-06 | 1062.26 | 1054.51 | 1046.65 | 1038.82
x1 = 0.3846 | 7.5e-06 | 5.73e-06 | 4.53e-06 | 3.7e-06 | 1095.45 | 1087.98 | 1080.32 | 1072.88
x1 = 0.4866 | 1.31e-05 | 9.56e-06 | 7.3e-06 | 5.78e-06 | 1121.16 | 1113.92 | 1106.46 | 1099.31
x1 = 0.589 | 2.12e-05 | 1.58e-05 | 1.15e-05 | 8.6e-06 | 1140.6 | 1133.51 | 1126.23 | 1119.29
x1 = 0.7073 | 3.61e-05 | 2.59e-05 | 1.9e-05 | 1.3e-05 | 1157.8 | 1150.84 | 1143.72 | 1136.94
x1 = 0.7963 | 6.42e-05 | 4.11e-05 | 2.8e-05 | 1.93e-05 | 1168.12 | 1161.22 | 1154.18 | 1147.48
x1 = 0.8459 | 8.43e-05 | 5.16e-05 | 3.41e-05 | 2.29e-05 | 1173.12 | 1166.24 | 1159.23 | 1152.56
x1 = 0.8947 | 0.00012 | 6.92e-05 | 4.41e-05 | 2.85e-05 | 1177.58 | 1170.73 | 1163.73 | 1157.09
x1 = 0.9465 | 0.000168 | 9.14e-05 | 5.59e-05 | 3.56e-05 | 1181.89 | 1175.06 | 1168.07 | 1161.45

CCCC[n+]1cccc(C)c1.F[B-](F)(F)F [1-butyl-3-methylpyridinium tetrafluoroborate] + CO
Settings | kinematic viscosity, 293.15 K [m2/s] | kinematic viscosity, 303.15 K [m2/s] | kinematic viscosity, 313.15 K [m2/s] | kinematic viscosity, 323.15 K [m2/s] | mass density, 293.15 K [kg/m3] | mass density, 303.15 K [kg/m3] | mass density, 313.15 K [kg/m3] | mass density, 323.15 K [kg/m3]
x1 = 0.0481 | 1.03e-06 | 8.95e-07 | 7.88e-07 | 7e-07 | 876.92 | 868.11 | 858.9 | 850
x1 = 0.0975 | 1.45e-06 | 1.22e-06 | 1.06e-06 | 9.17e-07 | 937.91 | 929.46 | 920.91 | 912.45
x1 = 0.1973 | 2.72e-06 | 2.2e-06 | 1.88e-06 | 1.61e-06 | 1017.57 | 1009.42 | 1001.41 | 993.31
x1 = 0.3001 | 4.45e-06 | 3.44e-06 | 3.04e-06 | 2.54e-06 | 1067.85 | 1059.92 | 1052.02 | 1044.13
x1 = 0.4013 | 7.03e-06 | 5.64e-06 | 4.73e-06 | 3.95e-06 | 1101.07 | 1093.38 | 1085.61 | 1077.93
x1 = 0.4969 | 1.2e-05 | 9.04e-06 | 7.23e-06 | 5.68e-06 | 1123.81 | 1116.36 | 1108.79 | 1101.32
x1 = 0.5985 | 1.98e-05 | 1.45e-05 | 1.08e-05 | 8.38e-06 | 1142.18 | 1134.95 | 1127.63 | 1120.38
x1 = 0.6972 | 3.36e-05 | 2.31e-05 | 1.69e-05 | 1.27e-05 | 1156.2 | 1149.14 | 1142.07 | 1134.99
x1 = 0.7942 | 5.92e-05 | 3.53e-05 | 2.51e-05 | 1.76e-05 | 1167.41 | 1160.48 | 1153.59 | 1146.64
x1 = 0.8427 | 7.8e-05 | 4.59e-05 | 3.12e-05 | 2.13e-05 | 1172.3 | 1165.41 | 1158.59 | 1151.69
x1 = 0.8978 | 0.00011 | 6.28e-05 | 4.03e-05 | 2.67e-05 | 1177.37 | 1170.53 | 1163.75 | 1156.91
x1 = 0.9689 | 0.000171 | 9.3e-05 | 5.65e-05 | 3.61e-05 | 1183.27 | 1176.47 | 1169.72 | 1162.95
